Results from PMC11707430, “Novel antibiotics against Staphylococcus aureus without detectable resistance by targeting proton motive force and FtsH” (MedComm, 2025).
In brackets after ≈: the same amount, converted by molar mass.

What was measured:
E. coli = test: MIC determination by microbroth dilution; type: cell-based; conditions: Escherichia coli, ATCC25922; ATCC 25922
Description: (§1) Minimal inhibitory concentration (MIC) determination. The detection of MIC was performed by the microbroth dilution method with reference to the previously report by Wang et al^2. Briefly, the fresh bacterial suspension was adjusted to a McF standard equivalent of 0.5 (~1.5 × 10^8 CFU/mL) and then 100-fold diluted with MH broth. Fifty microliters of bacterial suspension with equal volume of serially diluted compounds (1-128 µg/mL) were added into a 96-well cell plate (Corning Costar, the United States) and incubated at 37°C for 16-18 h. The bacterial suspension without compounds was used as a negative control. The lowest concentration that inhibited visible bacterial growth was considered as the value of MIC.

E. faecium = test: MIC determination by microbroth dilution; type: cell-based; conditions: Enterococcus faecium
Description: as §1

S. epidermidis = test: MIC determination by microbroth dilution; type: cell-based; conditions: Staphylococcus epidermidis
Description: as §1

A. baumannii = test: MIC determination by microbroth dilution; type: cell-based; conditions: Acinetobacter baumannii, ATCC19606; ATCC 19606
Description: as §1

E. faecalis = test: MIC determination by microbroth dilution; type: cell-based; conditions: Enterococcus faecalis
Description: as §1

P. aeruginosa = test: MIC determination by microbroth dilution; type: cell-based; conditions: Pseudomonas aeruginosa, PAO1
Description: as §1

K. pneumoniae = test: MIC determination by microbroth dilution; type: cell-based; conditions: Klebsiella pneumoniae, ATCC700603; ATCC 700603
Description: as §1

S. aureus ATCC 43300 = test: Concentration-dependent growth inhibition; type: cell-based
Description: Concentration-dependent growth inhibition. S. aureus was cultured in TSB to log phase, and diluted with MH broth to ~2×10^6 CFU/mL. One hundred microliters of the bacterial suspension with an equal volume of 2-fold diluted compounds were added in a 96-well cell culture plate. After incubation at 37 ℃ for 16h, the bacterial growth was quantified by measuring the OD value at 630nm (OD630nm).

TA 100 = test: Ames test; type: cell-based, Salmonella typhimurium
Description: (§2) Ames test. Genotoxicity of the compounds was determined by Ames Kit (IPHASE, Beijing, China) containing Salmonella typhimurium (TA97a, TA98, TA100, and TA1535) and E. coli WP2 uvrA (pKM101). Diclofenac and 2-aminofluorene were used as positive controls for TA97a and TA98. Methyl methanesulfonate and 2-aminofluorene were used as positive controls for TA100. Methyl methanesulfonate and 2-aminoanthracene were used as positive controls for WP2 uvrA (pKM101). NaN3 and 2-aminoanthracene were used as positive controls for TA1535. The bottom and top layer culture medium, and S9 mixed solution were prepared according to the manufacturer’s instructions. After incubation at 37℃ for 48h, the colonies were counted.

TA 1535 = test: Ames test; type: cell-based, Salmonella typhimurium
Description: as §2

TA 97a = test: Ames test; type: cell-based, Salmonella typhimurium
Description: as §2

TA 98 = test: Ames test; type: cell-based, Salmonella typhimurium
Description: as §2

Cc1nc2c(-c3ccc(Cl)cc3)cnn2c(O)c1Cc1ccccc1 [STK848198]
MIC (E. coli): > 32 µg/mL
MIC (E. faecium; ATCC19434, ATCC 19434): 8 µg/mL (≈ 22.9 µM)
MIC (E. faecium; U101, vancomycin resistant strain): 4 µg/mL (≈ 11.4 µM)
MIC (S. epidermidis; ATCC12228, ATCC 12228): 1 µg/mL (≈ 2.86 µM)
MIC (S. epidermidis; RP62A): 1 µg/mL (≈ 2.86 µM)
MIC (A. baumannii): > 32 µg/mL
MIC (E. faecalis; ATCC29212, ATCC 29212): 4 µg/mL (≈ 11.4 µM)
MIC (E. faecalis; ATCC51299, ATCC 51299, vancomycin resistant strain): 4 µg/mL (≈ 11.4 µM)
MIC (P. aeruginosa): > 32 µg/mL
MIC (K. pneumoniae): > 32 µg/mL
concentration at which growth inhibition was observed (S. aureus ATCC 43300): 0.25 ×MIC
CFU(x±SD) (TA 100; TA 100, +S9, 25 μg/well): 8 ±2 CFU
Fold Change (TA 100; TA 100, +S9, 25 μg/well): 0.2
CFU(x±SD) (TA 100; TA 100, +S9, 50 μg/well): 7 ±1 CFU
Fold Change (TA 100; TA 100, +S9, 50 μg/well): 0.2
CFU(x±SD) (TA 100; TA 100, +S9, 100 μg/well): 9 ±3 CFU
Fold Change (TA 100; TA 100, +S9, 100 μg/well): 0.3
CFU(x±SD) (TA 100; TA 100, +S9, 200 μg/well): 8±3 CFU
Fold Change (TA 100; TA 100, +S9, 200 μg/well): 0.2
CFU(x±SD) (TA 100; TA 100, +S9, 400 μg/well): 8 ±2 CFU
Fold Change (TA 100; TA 100, +S9, 400 μg/well): 0.2
CFU(x±SD) (TA 100; TA 100, -S9, 25 μg/well): 5±2 CFU
Fold Change (TA 100; TA 100, -S9, 25 μg/well): 0.2
CFU(x±SD) (TA 100; TA 100, -S9, 50 μg/well): 6±2 CFU
Fold Change (TA 100; TA 100, -S9, 50 μg/well): 0.2
CFU(x±SD) (TA 100; TA 100, -S9, 100 μg/well): 5±2 CFU
Fold Change (TA 100; TA 100, -S9, 100 μg/well): 0.1
CFU(x±SD) (TA 100; TA 100, -S9, 200 μg/well): 9±3 CFU
Fold Change (TA 100; TA 100, -S9, 200 μg/well): 0.3
CFU(x±SD) (TA 100; TA 100, -S9, 400 μg/well): 4±2 CFU
Fold Change (TA 100; TA 100, -S9, 400 μg/well): 0.1
CFU(x±SD) (TA 1535; TA 1535, +S9, 25 μg/well): 2±1 CFU
Fold Change (TA 1535; TA 1535, +S9, 25 μg/well): 0.9
CFU(x±SD) (TA 1535; TA 1535, +S9, 50 μg/well): 2±1 CFU
Fold Change (TA 1535; TA 1535, +S9, 50 μg/well): 0.9
CFU(x±SD) (TA 1535; TA 1535, +S9, 100 μg/well): 2±1 CFU
Fold Change (TA 1535; TA 1535, +S9, 100 μg/well): 1
CFU(x±SD) (TA 1535; TA 1535, +S9, 200 μg/well): 2±1 CFU
Fold Change (TA 1535; TA 1535, +S9, 200 μg/well): 0.7
CFU(x±SD) (TA 1535; TA 1535, +S9, 400 μg/well): 2±1 CFU
Fold Change (TA 1535; TA 1535, +S9, 400 μg/well): 0.7
CFU(x±SD) (TA 1535; TA 1535, -S9, 25 μg/well): 2±1 CFU
Fold Change (TA 1535; TA 1535, -S9, 25 μg/well): 0.9
CFU(x±SD) (TA 1535; TA 1535, -S9, 50 μg/well): 2±2 CFU
Fold Change (TA 1535; TA 1535, -S9, 50 μg/well): 1
CFU(x±SD) (TA 1535; TA 1535, -S9, 100 μg/well): 2±2 CFU
Fold Change (TA 1535; TA 1535, -S9, 100 μg/well): 1
CFU(x±SD) (TA 1535; TA 1535, -S9, 200 μg/well): 1±1 CFU
Fold Change (TA 1535; TA 1535, -S9, 200 μg/well): 0.6
CFU(x±SD) (TA 1535; TA 1535, -S9, 400 μg/well): 1±1 CFU
Fold Change (TA 1535; TA 1535, -S9, 400 μg/well): 0.6
CFU(x±SD) (TA 97a; +S9, 25 μg/well): 6±5 CFU
Fold Change (TA 97a; +S9, 25 μg/well): 0.3
CFU(x±SD) (TA 97a; +S9, 50 μg/well): 6±2 CFU
Fold Change (TA 97a; +S9, 50 μg/well): 0.2
CFU(x±SD) (TA 97a; +S9, 100 μg/well): 4±4 CFU
Fold Change (TA 97a; +S9, 100 μg/well): 0.2
CFU(x±SD) (TA 97a; +S9, 200 μg/well): 4±1 CFU
Fold Change (TA 97a; +S9, 200 μg/well): 0.2
CFU(x±SD) (TA 97a; +S9, 400 μg/well): 5±2 CFU
Fold Change (TA 97a; +S9, 400 μg/well): 0.2
CFU(x±SD) (TA 97a; -S9, 25 μg/well): 14±2 CFU
Fold Change (TA 97a; -S9, 25 μg/well): 0.6
CFU(x±SD) (TA 97a; -S9, 50 μg/well): 11±1 CFU
Fold Change (TA 97a; -S9, 50 μg/well): 0.4
CFU(x±SD) (TA 97a; -S9, 100 μg/well): 8±2 CFU
Fold Change (TA 97a; -S9, 100 μg/well): 0.3
CFU(x±SD) (TA 97a; -S9, 200 μg/well): 10±4 CFU
Fold Change (TA 97a; -S9, 200 μg/well): 0.4
CFU(x±SD) (TA 97a; -S9, 400 μg/well): 4±3 CFU
Fold Change (TA 97a; -S9, 400 μg/well): 0.2
CFU(x±SD) (TA 98; TA 98, +S9, 25 μg/well): 6 ±1 CFU
Fold Change (TA 98; TA 98, +S9, 25 μg/well): 0.9
CFU(x±SD) (TA 98; TA 98, +S9, 50 μg/well): 5 ±1 CFU
Fold Change (TA 98; TA 98, +S9, 50 μg/well): 0.8
CFU(x±SD) (TA 98; TA 98, +S9, 100 μg/well): 4 ±1 CFU
Fold Change (TA 98; TA 98, +S9, 100 μg/well): 0.7
CFU(x±SD) (TA 98; TA 98, +S9, 200 μg/well): 5 ±1 CFU
Fold Change (TA 98; TA 98, +S9, 200 μg/well): 0.7
CFU(x±SD) (TA 98; TA 98, +S9, 400 μg/well): 4 ±0 CFU
Fold Change (TA 98; TA 98, +S9, 400 μg/well): 0.6
CFU(x±SD) (TA 98; TA 98, -S9, 25 μg/well): 5±3 CFU
Fold Change (TA 98; TA 98, -S9, 25 μg/well): 0.8
CFU(x±SD) (TA 98; TA 98, -S9, 50 μg/well): 5±1 CFU
Fold Change (TA 98; TA 98, -S9, 50 μg/well): 0.8
CFU(x±SD) (TA 98; TA 98, -S9, 100 μg/well): 3±2 CFU
Fold Change (TA 98; TA 98, -S9, 100 μg/well): 0.5
CFU(x±SD) (TA 98; TA 98, -S9, 200 μg/well): 1±2 CFU
Fold Change (TA 98; TA 98, -S9, 200 μg/well): 0.2
CFU(x±SD) (TA 98; TA 98, -S9, 400 μg/well): 0±1 CFU
Fold Change (TA 98; TA 98, -S9, 400 μg/well): 0.1
